Patent US20180030091A1, “COLLAGEN-BINDING SYNTHETIC PEPTIDOGLYCANS FOR USE IN VASCULAR INTERVENTION” (Purdue Research Foundation, priority 2010, published 2018)
“Also recorded” adds a separate entry of the source. Values belong to the substance of their own block, whether it stands above or below them. Where no end group is shown, it is not given here.

How the values were obtained:
Fibrillar collagen = test: Binding affinity of biotin labeled peptidoglycan to fibrillar collagen; conditions: biotin labeled peptidoglycans, fitted saturation binding curves
Description: Fibrillar collagen (Chronolog, Havertown, Pa.) was coated onto the surface of a 96-well high bind plate (Costar) at a concentration of 50 μg/mL diluted in isotonic glucose. Plates were covered and incubated overnight at 4° C. Unbound collagen was removed by rinsing 3 times with 1×PBS pH 7.4. Plates were then blocked with 1% BSA for 3 hours at room temperature. Peptidoglycan was dissolved at varying concentrations in 1×PBS pH 7.4 containing 1% BSA and were immediately added to the collagen surfaces, and allowed to incubate for 15 min at room temperature. Plates were then rinsed 3 times with 1×PBS pH 7.4 containing 1% BSA. Streptavidin-HRP solution (R&D Systems, Minneapolis, Minn.) was then added to the plates and incubated for 20 minutes at room temperature. […] The color evolving reaction was stopped with 50 μL 2N sulfuric acid and absorbance was measured at 450 nm using an M5 UV Vis Spectrophotometer (Molecular Devices). Plate imperfections (540 nm) were subtracted from absorbance values.
The binding affinities of biotin labeled peptidoglycans, labeled using protocols known in the art, DS-SILY4 and DS-SILY18 were calculated by fitting the saturation binding curves and calculating the inflection point. […]

collagen [1] = test: Cryo-SEM measurement of fibril diameters; conditions: cryo-SEM images at 20,000×
Description: Using a modification of EXAMPLE 18 fibril diameters were measured by 8cryo-SEM. Fibril diameters from cryo-SEM images taken at 20,000× were measured using ImageJ software (NIH). At least 45 fibrils were measured for each treatment. Results are presented as Avg.±S.E. Statistical analysis was performed using DesignExpert software (StatEase) with α=0.05.

[2] = system: Human coronary artery smooth muscle cells (HCA SMC); test: Gel compaction by smooth muscle cells in collagen gels; format: cell-based
Description: Human coronary artery smooth muscle cells (HCA SMC) (Cascade Biologics) were cultured in growth medium (Medium 231 supplemented with smooth muscle growth factor). Cells from passage 3 were used for all experiments. Differentiation medium (Medium 231 supplemented with 1% FBS and 1×pen/strep) was used for all experiments unless otherwise noted.
Collagen gels were prepared with each additive as described with the exception that the 1×PBS sample addition was omitted to accommodate the addition of cells in media. After incubating on ice for 30 min, HCA SMCs in differentiation medium were added to the gel solutions to a final concentration of 1×10^6 cells/mL. Gels were formed in quadruplicate in 48-well non-tissue culture treated plates (Costar) for 6 hrs before adding 500 μL/well differentiation medium. Gels were freed from the well edges after 24 hrs. Medium was changed every 2-3 days and images for compaction were taken at the same time points using a Gel Doc System (Bio-Rad). The cross-sectional area of circular gels correlating to degree of compaction was determined using ImageJ software (NIH). Gels containing no cells were used as a negative control and cells in collagen gels absent additive were used as a positive control. By day 10 all gels had compacted to approximately 10% of the original gel area, and differences between additives were small.

collagen [3] = test: SILY binding to collagen (Biacore surface plasmon resonance)
Description: Biacore studies were performed on a Biacore 2000 using a CM-3 chip (Biacore, Inc., Piscataway, N.J.). The CM-3 chip is coated with covalently attached carboxymethylated dextran, which allows for attachment of the substrate collagen via free amine groups. Flow cells (FCs) 1 and 2 were used, with FC-1 as the reference cell and FC-2 as the collagen immobilized cell. Each FC was activated with EDC-NHS, and 1500 RU of collagen was immobilized on FC-2 by flowing 1 mg/mL collagen in sodium acetate, pH 4, buffer at 5 μL/min for 10 min. Unreacted […] sites were capped with ethanolamine; the control FC-1 was activated and capped with ethanolamin.
To determine peptide binding affinity, SILY was dissolved in 1×HBS-EP buffer (Biacore) at varying concentrations from 100 μM to 1.5 μm in 2-fold dilutions. […] The first 10 injections were buffer injections, which help to prime the system, followed by randomized sample injections, run in triplicate. Analysis was performed using BIAevaluation software (Biacore).

[4] = system: Human aortic smooth muscle cells; test: Collagen remodeling: hydroxyproline content in medium of cell-seeded collagen gels; format: cell-based; conditions: up to 30 days
Description: Following a method by Grassl, et al. (Grassl, et al., Journal of Biomedical Materials Research 2002, 60, (4), 607-612), which is herein incorporated in its entirety, collagen gels with or without synthetic PG mimics were formed as described in EXAMPLE 15. Human aortic smooth muscle cells (Cascade Biologics, Portland, Oreg.) were seeded within collagen gels by adding 4×10^6 cells/mL to the neutralized collagen solution prior to incubation. The cell-collagen solutions were pipetted into an 8-well Lab-Tek chamber slide and incubated in a humidified 37° C. and 5% CO2 incubator. After gelation, the cell-collagen gels will be covered with 1 mL Medium 231 as prescribed by Cascade. Every 3-4 days, the medium was removed from the samples and the hydroxyproline content measured by a standard hydroxyproline assay (Reddy, 1996).
To measure degraded collagen in the supernatant medium, the sample was lyophilized, the sample hydrolyzed in 2 M NaOH at 120° C. for 20 min. After cooling, free hydroxyproline was oxidized by adding chloramine-T (Sigma) and reacting for 25 min at room temperature. Ehrlich's aldehyde reagent (Sigma) was added and allowed to react for 20 min at 65° C. and followed by reading the absorbance at 550 nm on an M-5 spectrophotometer (Molecular Devices). […] Cultures were incubated for up to 30 days and three samples of each treatment measured. […]

collagen [5] = target: T1, collagen (Bos taurus, UniProt P02453+P02465); test: Cryo-SEM measurement of fibril density; conditions: 10:1 molar ratio, cryo-SEM 10,000×
T1 construct: purchased Inamed, Freemont, Calif; (Nutragen)
Description: Collagen gels were formed in the presence of each additive at a 10:1 molar ratio, as described in EXAMPLE 15, directly on the SEM stage, processed, and imaged as described. Images at 10,000× were analyzed for fibril density calculations. Images were converted to 8-bit black and white, and threshold values for each image were determined using ImageJ software (NIH). The threshold was defined as the value where all visible fibrils are white, and all void space is black. The ratio of white to black area was calculated using MatLab software. All measurements were taken in triplicate and thresholds were determined by an observer blinded to the treatment.

[6] = system: Human platelets on Type I fibrillar collagen; test: Inhibition of platelet activation on fibrillar collagen after 24 hour rinse (PF4, NAP2); format: cell-based; conditions: 50 μM, incubated 15 min, rinsed for 24 hours
Description: Type I fibrillar collagen from Chronolog was diluted in isotonic glucose to a concentration of 50 μg/mL. 50 μL of collagen solution was added to each well of a high bind 96-well plate. The plate was incubated overnight at 4° C., and then rinsed 3× with 1×PBS. For microplate assays, peptidoglycan was diluted in 1×PBS at concentrations between 0.0001 μM to 100 μM and 50 μL solution was added to the collagen coated wells. DS, peptide, or 1×PBS were also added to collagen coated wells as controls. Treatments were incubated at 37° C. with shaking at 200 rpm for 15 min. Wells were then rinsed of unbound treatment by removing the treatment solution, adding PBS, and shaking the wells for 24 hours. During the 24 hours, PBS solution was changed 3 times.
Human whole blood was collected from healthy volunteers by venipuncture. The first 5 mL of blood was discarded and approximately 20 mL was then collected into citrated glass vacutainers (BD Bioscience). Blood was centrifuged in the glass tube for 20 min at 200 g at 25° C. The top layer of the centrifuged blood, the platelet rich plasma (PRP), was used for platelet experiments.
PRP (50 μL/well) was added to the microplate for 1 hour at room temperature without shaking. After 1 hour of incubation, 45 μL of PRP was removed from each well and added to a microcentrifuge tube containing […] ETP (107 mM EDTA, 12 mM theophylline, and 2.8 mM prostaglandin E1) to inhibit further platelet activation. These tubes were spun at 4° C. for 30 min at 2000 g to pellet the platelets. The supernatant (platelet serum) was collected for ELISA studies to test for the presence of platelet activation markers PF-4 and NAP2. Sandwich ELISAs were utilized in order to detect each protein. The components for both sandwich ELISAs were purchased from R&D Systems and the provided protocols were followed. Platelet serum was diluted 10,000 times in 1% BSA in 1×PBS for values to fall within a linear range.
Platelet activation was measured through release of platelet factor 4 (PF4) and β-thromboglobulin (NAP2). […] Since the high SILY/DS ratio is expected to provide higher binding affinity to the collagen surface due to multiple interactions, peptidoglycans with the higher SILY/DS ratios were prepared.
The number of peptides per DS molecule was further increased to 18 to create the peptidoglycan DS-SILY18, and the concentration of molecule needed to inhibit platelet activation was tested. […] Within solubility limits, the number of peptides can be increased to achieve maximal platelet inhibition as well as to reduce diffusion over time, where a higher level of peptidoglycans on the denuded vessel wall is sustained.

collagen [7] = target: T1, collagen; test: Collagen fibrillogenesis by turbidity at 313 nm; format: biochemical; conditions: 1:1 collagen:additive molar ratio
Description: Collagen fibrillogenesis was monitored by measuring turbidity related absorbance at 313 nm providing information on rate of fibrillogenesis and fibril diameter. Gel solutions were prepared as described in EXAMPLE 15 (4 mg/mL collagen, 10:1 collagen:treatment, unless otherwise indicated) and 50 uL/well were added at 4° C. to a 384-well plate. The plate was kept at 4° C. for 4 hours before initiating fibril formation. A SpectraMax M5 at 37° C. was used to measure absorbance at 313 nm at 30 s intervals for 6 hours.
A fibrillogenesis assay as described for DS-SILY, EXAMPLE 17, performed with the conjugate DS-Dc13.

T1 sequence (P02453 162-1217 limits assumed): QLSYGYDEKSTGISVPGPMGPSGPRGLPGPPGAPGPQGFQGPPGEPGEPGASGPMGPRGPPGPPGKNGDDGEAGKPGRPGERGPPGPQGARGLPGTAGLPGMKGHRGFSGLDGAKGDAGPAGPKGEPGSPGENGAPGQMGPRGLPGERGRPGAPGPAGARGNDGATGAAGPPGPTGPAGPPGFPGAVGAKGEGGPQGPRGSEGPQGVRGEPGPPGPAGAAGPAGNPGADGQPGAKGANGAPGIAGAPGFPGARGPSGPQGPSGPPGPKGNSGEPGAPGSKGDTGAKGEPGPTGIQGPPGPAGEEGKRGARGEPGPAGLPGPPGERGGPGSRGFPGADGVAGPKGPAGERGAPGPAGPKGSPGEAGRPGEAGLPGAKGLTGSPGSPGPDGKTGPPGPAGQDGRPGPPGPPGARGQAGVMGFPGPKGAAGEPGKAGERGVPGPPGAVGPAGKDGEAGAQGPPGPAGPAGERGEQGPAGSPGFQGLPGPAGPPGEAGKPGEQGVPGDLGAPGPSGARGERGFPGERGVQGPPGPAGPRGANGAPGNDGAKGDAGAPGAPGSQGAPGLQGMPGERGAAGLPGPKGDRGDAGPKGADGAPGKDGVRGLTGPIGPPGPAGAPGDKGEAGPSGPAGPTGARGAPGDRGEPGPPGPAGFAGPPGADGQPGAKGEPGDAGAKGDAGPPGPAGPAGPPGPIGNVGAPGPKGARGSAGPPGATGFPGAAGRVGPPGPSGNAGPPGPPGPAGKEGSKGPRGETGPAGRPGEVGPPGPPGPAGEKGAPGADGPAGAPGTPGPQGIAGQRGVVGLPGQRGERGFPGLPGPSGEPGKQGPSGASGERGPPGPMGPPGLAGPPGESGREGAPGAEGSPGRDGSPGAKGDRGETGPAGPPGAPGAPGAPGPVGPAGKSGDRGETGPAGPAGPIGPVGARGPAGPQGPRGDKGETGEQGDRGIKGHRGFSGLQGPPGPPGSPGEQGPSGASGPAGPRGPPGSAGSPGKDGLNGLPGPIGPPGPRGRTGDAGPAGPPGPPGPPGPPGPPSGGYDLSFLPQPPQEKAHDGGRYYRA
T1 sequence (P02465 80-1117 limits assumed): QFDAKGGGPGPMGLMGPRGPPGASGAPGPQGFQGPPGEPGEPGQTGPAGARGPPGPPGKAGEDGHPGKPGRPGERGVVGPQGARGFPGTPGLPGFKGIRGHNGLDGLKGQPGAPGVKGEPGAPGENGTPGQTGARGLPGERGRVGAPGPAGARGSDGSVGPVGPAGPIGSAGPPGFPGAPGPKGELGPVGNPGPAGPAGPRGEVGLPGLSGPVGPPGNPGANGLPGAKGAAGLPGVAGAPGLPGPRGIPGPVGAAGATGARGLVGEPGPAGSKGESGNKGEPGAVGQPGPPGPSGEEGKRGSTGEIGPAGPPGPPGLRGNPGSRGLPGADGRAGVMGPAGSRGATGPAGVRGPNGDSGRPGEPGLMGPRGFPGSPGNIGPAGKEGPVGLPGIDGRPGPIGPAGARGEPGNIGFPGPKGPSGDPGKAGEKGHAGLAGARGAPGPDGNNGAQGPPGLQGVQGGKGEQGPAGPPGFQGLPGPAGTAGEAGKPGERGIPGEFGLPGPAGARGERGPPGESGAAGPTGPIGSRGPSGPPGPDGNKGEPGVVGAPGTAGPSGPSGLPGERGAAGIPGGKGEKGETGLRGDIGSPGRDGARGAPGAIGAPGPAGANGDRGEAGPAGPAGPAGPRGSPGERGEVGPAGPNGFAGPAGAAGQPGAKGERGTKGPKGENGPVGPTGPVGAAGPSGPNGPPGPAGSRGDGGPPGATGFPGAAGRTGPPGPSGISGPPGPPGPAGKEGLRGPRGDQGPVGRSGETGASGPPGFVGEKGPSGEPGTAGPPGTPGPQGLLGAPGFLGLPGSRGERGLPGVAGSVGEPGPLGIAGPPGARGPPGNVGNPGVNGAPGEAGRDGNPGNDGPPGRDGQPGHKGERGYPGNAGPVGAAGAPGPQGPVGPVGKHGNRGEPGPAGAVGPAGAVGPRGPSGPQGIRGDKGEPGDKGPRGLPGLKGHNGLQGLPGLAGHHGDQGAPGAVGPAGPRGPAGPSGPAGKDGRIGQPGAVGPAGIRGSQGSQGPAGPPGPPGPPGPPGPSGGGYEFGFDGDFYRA

- Kd (Fibrillar collagen): 118 nM
Substance: DS-SILY4: dermatan sulfate with 4 SILY peptides via BMPH; tested biotin labeled (RRANAALKAGELYKSILYGC-NH2; also: Cys thiol coupled via BMPH crosslinker to oxidized dermatan sulfate, 4 peptides per glycan, biotin label in tested form, position not given here)

Substance: Decorin
- fibril diameter (collagen [1]): significantly decrease fibril diameter over collagen or collagen+DS; also recorded: significantly decrease fibril diameter over collagen or collagen+dermatan sulfate
- gel compaction, day 7 ([2]; Day 7): significant against all samples
- gel compaction, days 3 and 5 ([2]; Days 3 and 5): significant relative to collagen and DS

- binding to collagen (association/disassociation curves) (collagen [3]; 100 μM to 1.5 μm in 2-fold dilutions): binds reversibly with collagen
- Kd (collagen [3]; calculated from the on-off binding kinetics, collagen on CM-3 chip): 1200 nM
- fibril density (ratio of fibril containing area to void space) (collagen [5]): significantly greater fibril density
Substance: RRANAALKAGELYKSILYGC
- collagen degradation by hydroxyproline content in cell medium [4]: greater collagen degradation compared to collagen alone
- inhibition of platelet activation (release of PF4 and NAP2) [6]: little to no effect on inhibiting platelet activation

Substance: SYIRIADTNITGC [Dc13]
- fibrillogenesis (absorbance at 313 nm), free peptide (collagen [7]): little effect on fibrillogenesis compared to collagen alone
- collagen degradation by hydroxyproline content in cell medium [4]: greater collagen degradation compared to collagen alone
